Our source for the EC50 values is US8003648B2, “Heterocyclic GPR40 modulators” (Amgen Inc., priority 2006, dated 2011).

T1 sequence (O14842 whole entry): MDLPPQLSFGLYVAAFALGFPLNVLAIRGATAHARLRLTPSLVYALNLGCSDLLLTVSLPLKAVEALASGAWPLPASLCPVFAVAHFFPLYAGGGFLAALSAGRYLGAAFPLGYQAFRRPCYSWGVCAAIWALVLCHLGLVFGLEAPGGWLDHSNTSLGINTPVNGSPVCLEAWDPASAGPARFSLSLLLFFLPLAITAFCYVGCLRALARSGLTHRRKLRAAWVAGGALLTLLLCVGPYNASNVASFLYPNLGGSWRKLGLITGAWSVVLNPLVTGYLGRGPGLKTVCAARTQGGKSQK

The assay addresses T1, human GPR40 (Homo sapiens, UniProt O14842).
T1 construct: host or cells: CHO cells
As to the kind of experiment: Cell-based aequorin assay using human GPR40. The following applies: activation of human GPR40; CHO cells stably transfected with GPR40 and Aequorin; 0.01% HSA; aequorin luminescence. On the procedure: Cell-based aequorin assays were employed to characterize the modulatory activity of compounds on the GPR40 signaling pathway. In an exemplary assay, CHO cells were stably transfected with both GPR40 and Aequorin (Euroscreen). Cells were detached from the tissue culture dish with 2 mL of trypsin (0.25% (w/v)). Trypsinization was halted with 28 mL of Hanks Buffered Salt Solution containing 20 mM Hepes (H/HBSS) and 0.01% fatty acid-free human serum albumin (HSA). Coelantrazine is added to 1 ug/mL, and the cells were incubated for 2 hours at room temperature. Compounds were dissolved in DMSO for preparation of 10 mM stock solutions. Compounds were diluted in H/HBSS containing 0.01% HSA. Serial dilutions of the test compounds were prepared to determine dose response.
Aequorin luminescence measurements were made using an EG&G Berthold 96-well luminometer, and the response was measured over a 20 second interval after cells and compounds were mixed. The maximum relative light units was plotted to determine dose response. The EC50 (effective concentration to reach 50% maximal response) was determined from the dose response plot.
Table 1 presents representative data (EC50 values) obtained for exemplary compounds of the invention for the activation of human GPR40. […]
`Cc1cc(-c2ccc(C(F)(F)F)cc2)sc1COc1ccc([C@H](CC(=O)O)c2ccon2)cc1` [Example 62, (3S)-3-(3-Isoxazolyl)-3-(4-(((3-methyl-5-(4-(trifluoromethyl)phenyl)-2-thienyl)methyl)oxy)phenyl)propanoic acid] registered an EC50 of 10 to 100 nM. Then `O=C(O)C[C@@H](c1ccc(OCc2ccc(OC(F)(F)F)c(C3=CCCC3)c2)cc1)c1ccon1` [Example 20, (S)-3-(4-(3-Cyclopentenyl-4-(trifluoromethoxy)benzyloxy)-phenyl)-3-(isoxazol-3-yl)propanoic acid], with 10 to 100 nM; and `Cc1nc(-c2ccc(C(F)(F)F)cc2)oc1COc1ccc([C@H](CC(=O)O)c2ccon2)cc1` [Example 51, (S)-3-(Isoxazol-3-yl)-3-(4-((4-methyl-2-(4-(trifluoromethyl)phenyl)oxazol-5-yl)methoxy)phenyl)propanoic acid], with 100 to 1000 nM; and `Cc1oc(-c2ccc(Cl)cc2)cc1COc1ccc([C@H](CC(=O)O)c2ccon2)cc1` [Example 53, (S)-3-(4-((5-(4-Chlorophenyl)-2-methylfuran-3-yl)methoxy)phenyl)-3-(isoxazol-3-yl)propanoic acid], with 10 to 100 nM. Compound `C=C(C)c1cc(COc2ccc([C@H](CC(=O)O)c3ccon3)cc2)ccc1OC(F)(F)F` [Example 24, (S)-3-(4-(3-(Prop-1-en-2-yl)-4-(trifluoromethoxy)benzyloxy)-phenyl)-3-(isoxazol-3-yl)propanoic acid] had an EC50 of 10 to 100 nM. Then `O=C(O)C[C@@H](c1ccc(OCc2nc(-c3ccc(Cl)cc3)no2)cc1)c1ccon1` [Example 69], with 1000 to 10000 nM; and `CCCCc1ccc(-c2cc(COc3ccc([C@H](CC(=O)O)c4ccon4)cc3)c(C)o2)cc1` [Example 56], with 100 to 1000 nM. For `CCCCOc1ccc(-c2nc(C)c(COc3ccc([C@H](CC(=O)O)c4ccon4)cc3)s2)cc1F` [Example 75, (3S)-3-(4-((2-(4-Butoxy-3-fluorophenyl)-4-methylthiazol-5-yl)methoxy)phenyl)-3-(isoxazol-3-yl)propanoic acid] the value was 10 to 100 nM. For `CC1(C)CCC(C)(C)c2cc(COc3ccc([C@H](CC(=O)O)c4ccon4)cc3)ccc21` [Example 40, (S)-3-(Isoxazol-3-yl)-3-(4-((5,5,8,8-tetramethyl-5,6,7,8-tetrahydronaphthalen-2-yl)methoxy)phenyl)propanoic acid], the EC50 is 10 to 100 nM. Compound `O=C(O)C[C@@H](c1ccc(OCCCCOc2ccc(C(F)(F)F)cc2)cc1)c1ccon1` [Example 49] gave an EC50 of 100 to 1000 nM.

With `O=C(O)C[C@@H](c1ccc(OCc2cccc(Sc3ccc(C(F)(F)F)cc3)c2)cc1)c1ccon1` [Example 31, (S)-3-(4-(3-(4-(Trifluoromethyl)phenylthio)benzyloxy)phenyl)-3-(isoxazol-3-yl)propanoic acid], the EC50 lay within 10 to 100 nM. Turning to `CC12CCC(c3nc(COc4ccc([C@H](CC(=O)O)c5ccon5)cc4)cnc31)C2(C)C` (stereo partly shown) [Example 82], the concentration giving a half-maximal response (EC50) is 1000 to 10000 nM.

The compound `Cc1nc(-c2ccc(C(F)(F)F)cc2)sc1COc1ccc([C@H](CC(=O)O)C2=NOCC2)cc1` [Example 9, (S)-3-(Dihydroisoxazol-3-yl)-3-(4-((4-methyl-2-(4-(trifluoromethyl)phenyl)thiazol-5-yl)methoxy)phenyl)propanoic acid] came in with an EC50 of 10 to 100 nM.

`CC(C)c1cc(COc2ccc([C@H](CC(=O)O)c3ccon3)cc2)ccc1C(C)(C)C` [Example 26, (S)-3-(4-(4-tert-Butyl-3-isopropylbenzyloxy)phenyl)-3-(isoxazol-3-yl)propanoic acid] returned a concentration for a half-maximal effect (EC50) of 100 to 1000 nM.

For `O=C(O)C[C@H](c1ccc(OCc2cccc(-c3ccc(C(F)(F)F)cc3)c2)cc1)c1ccon1` [Example 3, (R)-3-(4-(3-(4-(Trifluoromethyl)phenyl)benzyloxy)phenyl)-3-(isoxazol-3-yl)propanoic acid], the EC50 lay within 1000 to 10000 nM. For `COc1ccccc1-c1nc(COc2ccc([C@H](CC(=O)O)c3ccon3)cc2)no1` [Example 64] the value was 1000 to 10000 nM.

Broadly, the EC50 is the concentration at which the effect is half-maximal.
